Where a name gives a salt, the structure may show the parent alone. Read-outs that look alike come from different tables or passages of the source.
Key:
μ opioid receptor = μ opioid receptor (Homo sapiens, UniProt P35372); assay: radioisotope ligand competitive binding assay, μ opioid receptor (MOR)
κ opioid receptor = κ opioid receptor (Homo sapiens, UniProt P41145); assay: radioisotope ligand competitive binding assay, κ opioid receptor (KOR)
Text: (§1) Through the radioisotope ligand competitive binding assay, IC50 of the compound was used as an indicator to evaluate the affinity of the compound to κ and δ opioid receptors.
(§2) (1) Reagents • The cell membrane was extracted from stably transfected cells constructed by WuXi AppTec, Shanghai. • 3H-diprenophrine (PerkinElmer, Cat: NET1121250UC, Lot: 2143599) • 3H-DAMGO (PerkinElmer, Cat: NET902250UC, Lot: 2139100) • 3H-DADLE (PerkinElmer, Cat: NET648250UC, Lot: 2060549) • Tris base (Sigma, Cat: T6066-1KG), prepare 1M stock and adjust pH to 7.4. • 0.5M EDTA (Invitrogen, Cat: 15575-038) • 1M MgCl2 (Sigma, Cat: M1028-100 ml) • PEI (Poly ethyleneimine) (Sigma, Cat: P3143) • Microscint 20 cocktail (PerkinElmer, Cat: 6013329) • Naltrindole (Sigma, Cat; N115) • (±)trans-U-50488 (Sigma, Cat: D8040) • DAMGO (Sigma, Cat: E7384)
(§3) (1) 1 μL of the test compounds, negative control (i.e., DMSO) and positive control (i.e., non-specific binding well compound), after being prepared, were respectively transferred to a 96-well plate;
(§4) (2) 99 μL of the prepared opioid receptor membrane protein was added to each well of the 96-well plate containing 1 μL of the compound;
(§5) (3) 100 μL of 2× corresponding radioisotope ligand was added to each well;
(§6) (4) The plate was placed on a shake and incubated at room temperature for 1 hour;
(§7) (5) Each well of the GF/C plate was soaked with 50 μL of 0.3% PEI for at least half an hour in advance;
(§8) (6) After the incubation was finished, the GF/C plate was washed with plate washing buffer once by using Harvest. Then, the cell membranes in the 96-well plate were collected onto the GF/C plate using Harvest, and the GF/C plate was washed four times with the plate washing buffer, each time about 250 μL;
(§9) (7) The GF/C plate was placed in an oven at 50° C. for 1 hour;
(§10) (8) The bottom of the GF/C plate was sealed with a plate sealing film, 50 μL of Microscint-20 scintillation fluid was added to each well, and then the plate was sealed with a transparent sealing film for microplate;
(§11) (9) The radioactive signal value CPM was read using MicroBeta2;
(§12) (10) The data was analyzed with Prism 5. The percentage inhibition rate was calculated with the calculation formula: % Inh=(1-Background subtracted Assay value/Background subtracted HC value)*100.

δ opioid receptor = δ opioid receptor (Homo sapiens, UniProt P41143); assay: radioisotope ligand competitive binding assay, δ opioid receptor (DOR)
Text: as §1, §2, §3, §4, §5, §6, §7, §8, §9, §10, §11, §12

[1] = test system: pain induced by heat radiation in mice; assay: pain induced by heat radiation in mice (light and heat-induced pain); format: in vivo; conditions: for ED50: Mus musculus
Text: (§13) A mode of pain induced by heat radiation in mice and a mode of pain induced by hot plate in mice were used to evaluate the analgesic intensity of the test compounds.

[2] = pharmacokinetic investigation of intravenous administration in mice; format: in vivo; conditions: mouse; male mice, intravenous injection, plasma
Experimental: Male mice were injected intravenously with the compound of the present disclosure, and the concentration of the unchanged compound in plasma and the concentration of the metabolite of dezocine hydrochloride were measured after the administration.

[3] = test system: pain induced by hot plate in mice; assay: pain induced by hot plate in mice; format: in vivo; conditions: Mus musculus; male mice
Text: as §13

[4] = [3H]DAMGO 0.5 nM, cell membrane of stably transfected cells, read-out: μ IC50
[5] = [3H]Diprenorphine 0.3 nM, cell membrane of stably transfected cells, read-out: κ IC50
[6] = [3H]-DADLE 0.5 nM, cell membrane of stably transfected cells, read-out: δ IC50
[7] = female mice, read-out: Light and heat-induced pain ED50 Female
[8] = male mice, read-out: Light and heat-induced pain ED50 Male

SMILES | IC50 (μ opioid receptor; [4]) [µM] | IC50 (κ opioid receptor; [5]) [µM] | IC50 (δ opioid receptor; [6]) [µM] | further results
COc1ccc2c(c1)[C@@]1(C)CCCCC[C@@H](C2)[C@@H]1NC(C)C [Hydrochloride of compound 6] | 1 to 10 | 1 to 10 | > 10 | 
CCOc1ccc2c(c1)[C@@]1(C)CCCCC[C@@H](C2)[C@@H]1NC [Hydrochloride of compound 37] | 1 to 10 | 1 to 10 | > 10 | 
CCCCN(C)[C@H]1[C@H]2CCCCC[C@]1(C)c1cc(O)ccc1C2 [Hydrochloride of compound 32] | < 0.01 | 0.01 to 0.1 | 0.01 to 0.1 | 
CCCCCN(C)[C@H]1[C@H]2CCCCC[C@]1(C)c1cc(OC)ccc1C2 [Hydrochloride of compound 16] | 0.1 to 1 | > 10 | > 10 | 
C[C@@]12CCCCC[C@@H](Cc3ccc(OCc4ccccc4)cc31)[C@@H]2NCc1ccccc1 [Hydrochloride of compound 39] | < 0.01 | 0.1 to 1 | 0.1 to 1 | 
COc1ccc2c(c1)[C@@]1(C)CCCCC[C@@H](C2)[C@@H]1N(C)C [Hydrochloride of compound 11] | 0.1 to 1 | > 10 | > 10 | 
C[C@@]12CCCCC[C@@H](Cc3ccc(O)cc31)[C@@H]2NCc1ccccc1 [Hydrochloride of compound 26] | < 0.01 | < 0.01 | < 0.01 | ED50 [1, 7]: 0.025 mg/kg; ED50 [1, 8]: 0.017 mg/kg; Light and heat-induced pain ED95 Female ([1]; female mice): 0.043 mg/kg; analgesic effect (comparison in words) ([1]; four mouse models of pain (heat radiation and hot plate), versus dezocine): strongest analgesic effect; Light and heat-induced pain ED95 Male ([1]; male mice): 0.021 mg/kg; half-life [2]: 1.35 h; ED50 [3]: 0.045 mg/kg
C[C@@]12CCCCC[C@@H](Cc3ccc(O)cc31)[C@@H]2NCCc1ccc(Cl)c(Cl)c1 [Hydrochloride of compound 27] | 0.01 to 0.1 | 0.01 to 0.1 | 0.1 to 1 | 
CCCN(C)[C@H]1[C@H]2CCCCC[C@]1(C)c1cc(O)ccc1C2 [Hydrochloride of compound 31] | < 0.01 | 0.1 to 1 | 0.01 to 0.1 | 
C[C@@]12CCCCC[C@@H](Cc3ccc(O)cc31)[C@@H]2NCCc1ccccc1 [Hydrochloride of compound 25] | < 0.01 | 0.1 to 1 | 0.1 to 1 | ED50 [1, 7]: 1.15 mg/kg; ED50 [1, 8]: 0.74 mg/kg; Light and heat-induced pain ED95 Female ([1]; female mice): 2.88 mg/kg; Light and heat-induced pain ED95 Male ([1]; male mice): 1.18 mg/kg; half-life [2]: 1.65 h
C[C@@]12CCCCC[C@@H](Cc3ccc(O)cc31)[C@@H]2NCC1CC1 [Hydrochloride of compound 24] | 0.01 to 0.1 | 0.1 to 1 | 1 to 10 | 
COc1ccc2c(c1)[C@@]1(C)CCCCC[C@@H](C2)[C@@H]1N(C)Cc1ccccc1 [Hydrochloride of compound 17] | 0.1 to 1 | > 10 | > 10 | 
CN(CCc1ccccc1)[C@H]1[C@H]2CCCCC[C@]1(C)c1cc(O)ccc1C2 [Hydrochloride of compound 30] | < 0.01 | 0.01 to 0.1 | 0.01 to 0.1 | 
CCOc1ccc2c(c1)[C@@]1(C)CCCCC[C@@H](C2)[C@@H]1N [Hydrochloride of compound 35] |  |  |  | IC50 (μ opioid receptor): 0.1 to 1 µM; IC50 (κ opioid receptor): > 10 µM; IC50 (δ opioid receptor): > 10 µM
CN[C@H]1[C@H]2CCCCC[C@]1(C)c1cc(OCc3ccccc3)ccc1C2 [Hydrochloride of compound 38] | 0.01 to 0.1 | 1 to 10 | 1 to 10 | 
CCN[C@H]1[C@H]2CCCCC[C@]1(C)c1cc(O)ccc1C2 [Hydrochloride of compound 19] | < 0.01 | 0.01 to 0.1 | 1 to 10 | 
CCCCCN(C)[C@H]1[C@H]2CCCCC[C@]1(C)c1cc(O)ccc1C2 [Hydrochloride of compound 33] | < 0.01 | 0.1 to 1 | 0.1 to 1 | 
CCN[C@H]1[C@H]2CCCCC[C@]1(C)c1cc(OC)ccc1C2 [Hydrochloride of compound 2] | 0.1 to 1 | 1 to 10 | > 10 | 

SMILES | IC50 (μ opioid receptor; [4]) [µM] | IC50 (κ opioid receptor; [5]) [µM] | IC50 (δ opioid receptor; [6]) [µM] | further results
C[C@@]12CCCCC[C@@H](Cc3ccc(O)cc31)[C@@H]2N1CCCC1 [Hydrochloride of compound 29] | 0.01 to 0.1 | 1 to 10 | 1 to 10 | 
CC(C)N[C@H]1[C@H]2CCCCC[C@]1(C)c1cc(O)ccc1C2 [Hydrochloride of compound 23] | 0.01 to 0.1 | 0.1 to 1 | 1 to 10 | 
COc1ccc2c(c1)[C@@]1(C)CCCCC[C@@H](C2)[C@@H]1N(C)CCc1ccccc1 [Hydrochloride of compound 13] | 0.1 to 1 | > 10 | > 10 | 
COc1ccc2c(c1)[C@@]1(C)CCCCC[C@@H](C2)[C@@H]1NCCc1ccccc1 [Hydrochloride of compound 8] | 0.01 to 0.1 | > 10 | > 10 | 
CN(C)[C@H]1[C@H]2CCCCC[C@]1(C)c1cc(O)ccc1C2 [Hydrochloride of compound 28] | < 0.01 | 0.1 to 1 | 1 to 10 | 
CN[C@H]1[C@H]2CCCCC[C@]1(C)c1cc(OC)ccc1C2 [Hydrochloride of compound 1] | 0.1 to 1 | 1 to 10 | > 10 | 
CN(Cc1ccccc1)[C@H]1[C@H]2CCCCC[C@]1(C)c1cc(OCc3ccccc3)ccc1C2 [Hydrochloride of compound 40] | < 0.01 | < 0.01 | 0.01 to 0.1 | 
COc1ccc2c(c1)[C@@]1(C)CCCCC[C@@H](C2)[C@@H]1NCC1CC1 [Hydrochloride of compound 7] | 0.1 to 1 | 0.1 to 1 | > 10 | 
CCCCN[C@H]1[C@H]2CCCCC[C@]1(C)c1cc(OC)ccc1C2 [Hydrochloride of compound 4] | 0.01 to 0.1 | 1 to 10 | 1 to 10 | 
COc1ccc2c(c1)[C@@]1(C)CCCCC[C@@H](C2)[C@@H]1N1CCCC1 [Hydrochloride of compound 12] | 1 to 10 | > 10 | > 10 | 
CCCN(C)[C@H]1[C@H]2CCCCC[C@]1(C)c1cc(OC)ccc1C2 [Hydrochloride of compound 14] | 0.1 to 1 | 1 to 10 | > 10 | 
CCCN[C@H]1[C@H]2CCCCC[C@]1(C)c1cc(OC)ccc1C2 [Hydrochloride of compound 3] | 0.01 to 0.1 | 0.1 to 1 | > 10 | 
COc1ccc2c(c1)[C@@]1(C)CCCCC[C@@H](C2)[C@@H]1NCCc1ccc(Cl)c(Cl)c1 [Hydrochloride of compound 10] | 0.1 to 1 | 1 to 10 | > 10 | 
C[C@@]12CCCCC[C@@H](Cc3ccc(O)cc31)[C@@H]2N (relative stereo) [dezocine hydrochloride, (−)-[5R-(5a,11a,13S*)]-13-amino-5,6,7,8,9,10,11,12-octahydro-5-methyl-5,11-methylene benzocyclodecen-3-ol, reference compound] |  |  |  | half-life [2]: 0.903 h
CN[C@H]1[C@H]2CCCCC[C@]1(C)c1cc(O)ccc1C2 [Hydrochloride of compound 18] | 0.01 to 0.1 | 0.1 to 1 | 1 to 10 | 
COc1ccc2c(c1)[C@@]1(C)CCCCC[C@@H](C2)[C@@H]1NCc1ccccc1 [Hydrochloride of compound 9] | 0.1 to 1 | 0.1 to 1 | 1 to 10 | 
C[C@@]12CCCCC[C@@H](Cc3ccc(OCc4ccccc4)cc31)[C@@H]2N [Hydrochloride of compound 36] | 0.01 to 0.1 | 1 to 10 | 1 to 10 | 

Source: patent US20220117913A1, “DEZOCINE DERIVATIVE AND MEDICAL USE THEREOF” (YANGTZE RIVER PHARMACEUTICAL GROUP CO., LTD., priority 2019, published 2022)
